Data: PubChem BioAssay (NCI)
Values joined by “and” are separate entries in the source; they are usually repeats but may differ in a detail not shown here. Equal values may be shown once.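 Dose response: 5 concentrations. Exposure: 48 h. Format: 96-well plates. Endpoint: linear interpolation; highest concentration if not reached. Abbreviation: GI50, concentration required for 50% inhibition of growth. Definition used: TGI = concentration required for complete inhibition of growth.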

Legend:
Experiment in all cases: NCI tumour cell line growth inhibition, 48 h
MDA-N = system: MDA-N
DLD-1 colon = system: DLD-1 colon
KM20L2 colon = system: KM20L2 colon
LXFL 529 NSCLC = system: LXFL 529 NSCLC
RXF-631 renal = system: RXF-631 renal
XF 498 CNS = system: XF 498 CNS
DMS 114 small cell lung = system: DMS 114 small cell lung
DMS 273 small cell lung = system: DMS 273 small cell lung
HOP-18 NSCLC = system: HOP-18 NSCLC
P388 leukemia = system: P388 leukemia
P388/ADR leukemia = system: P388/ADR leukemia
SN12K1 renal = system: SN12K1 renal

Compound	TGI (MDA-N)	TGI (DLD-1 colon)	TGI (KM20L2 colon)	TGI (LXFL 529 NSCLC)	TGI (XF 498 CNS)	TGI (DMS 114 small cell lung)	TGI (DMS 273 small cell lung)	TGI (HOP-18 NSCLC)	also measured
CC1CCC2C(C)C3C(CC4C5CC=C6CC(OC7OC(CO)C(O)C(OC8OC(CO)C(O)C(O)C8O)C7OC7OC(C)C(O)C(O)C7O)CCC6(C)C5CCC43C)N2C1 (stereo not given)	23.7 µM and > 2.5 µg/mL								GI50 (MDA-N): > 2.5 µg/mL
CCOC(=O)C1=C(NC(C)(C)C)OCC1=O		> 100 µM	> 100 µM	> 100 µM	> 100 µM				TGI (RXF-631 renal): > 100 µM
Fc1ccc(F)c(C2SCc3nc4ccccc4n32)c1 (stereo not given)		> 100 µM	> 100 µM	> 100 µM		68.8 µM	64.3 µM	> 100 µM	
C[C@H]1COC2(c3ccccc3)CCC(=O)N12 (stereo not given in full)		> 100 µM	> 100 µM		> 100 µM	> 100 µM	> 100 µM	> 100 µM	
CCCCSCc1nc2nc(Cl)c(Cl)nc2[nH]1	65.9 µM								
C=C1C(=O)O[C@H]2[C@H]1[C@H](OC(=O)/C(C)=C\C)C[C@]1(CO1)[C@@H]1[C@H](OC(C)=O)C=C(C)[C@]21O	34.8 µM								
CC1CCCN(CC(O)CN2CCCc3ccccc32)C1 (stereo not given)	> 100 µM								
COc1ccc(/C(Cl)=C(\C=O)c2ccc(OC)c(OC)c2)cc1OC	> 100 µM	> 100 µM	> 100 µM		> 100 µM	> 100 µM	> 100 µM	> 100 µM	TGI (P388 leukemia): > 100 µM; TGI (P388/ADR leukemia): > 85.8 µM; TGI (SN12K1 renal): > 100 µM
CS(=O)(=O)OCCN(CCOS(C)(=O)=O)c1ccc(C=Nc2ccc3oc(=O)ccc3c2)cc1	35.8 µM		> 100 µM	36.4 µM		22.3 µM			
CC1=Nc2c([nH]c(=S)[nH]c2=O)NC(c2ccc(Cl)c(Cl)c2)C1 (stereo not given)		> 56.7 µM	> 62.9 µM	37.8 µM	> 100 µM	> 81 µM	> 72.9 µM	> 100 µM	
O=C(O)c1ccc(S(=O)(=O)N=Nc2c(O)[nH]c3ccccc23)cc1	> 100 µM								
COc1cc(OC)c(OC)cc1/C=C1\C=Cc2ccccc21	58.2 µM								
COc1ccc(CCNCc2cccc(OC)c2OC)cc1OC		> 100 µM	> 100 µM	> 100 µM	> 100 µM	> 100 µM	> 100 µM		TGI (RXF-631 renal): > 100 µM
CN(/N=C/c1ccnc2ccccc12)c1ccc([N+](=O)[O-])cc1[N+](=O)[O-]		> 100 µM	> 100 µM	> 100 µM	> 100 µM	> 100 µM	> 100 µM	> 100 µM	
O=C1OC(c2ccccc2)=N/C1=C\c1c(O)cc(O)cc1O			> 100 µM	> 100 µM		> 100 µM	> 100 µM	> 100 µM	
O=C(O)C(Br)C(Br)c1ccccc1[N+](=O)[O-] (stereo not given)	> 100 µM								
COc1ccc(/C(Cl)=C(\C=O)c2ccc(Br)cc2)cc1OC		> 100 µM	> 100 µM	> 100 µM	39.8 µM		> 100 µM	> 100 µM	TGI (RXF-631 renal): > 100 µM
CC(C)CC(CNC(Cc1ccc(Cl)cc1)C(N)=O)NC(=O)C(Cc1cnc[nH]1)NC(=O)CNC(=O)C(NC(=O)C(C)NC(=O)C(Cc1c[nH]c2ccccc12)NC(=O)C(CCC(=O)O)NC(=O)C(N)Cc1ccccc1)C(C)C (stereo not given)		> 133 µM	> 133 µM	> 133 µM	> 133 µM	> 133 µM	> 133 µM		TGI (RXF-631 renal): > 133 µM
O=C(/C=C/c1c(O)ccc2ccccc12)c1cccc2ccccc12		> 100 µM	> 100 µM	> 100 µM	> 100 µM	> 100 µM	> 100 µM	> 100 µM	
Cc1cccc2c1Oc1cc(Cl)ccc1C2NC(=O)CN(C)C (stereo not given)		> 100 µM	41.2 µM	> 100 µM		> 100 µM	> 100 µM		
c1ccc2cc(OCC3CO3)c(OCC3CO3)cc2c1 (stereo not given)	22.9 µM								

Compound	TGI (MDA-N)	TGI (DLD-1 colon)	TGI (KM20L2 colon)	TGI (LXFL 529 NSCLC)	TGI (XF 498 CNS)	TGI (DMS 114 small cell lung)	TGI (DMS 273 small cell lung)	TGI (HOP-18 NSCLC)	also measured
CCc1ccccc1-n1c2nc(=O)n(C)c(=O)c-2nc2ccccc21		45.2 µM		24.8 µM	22 µM	14.2 µM	22.1 µM	25 µM	
O=C(CCCNC(=O)OCc1ccccc1)OCc1ccc2c(c1)C(=O)c1ccccc1C2=O		> 100 µM	> 100 µM	> 100 µM		> 100 µM	> 100 µM		TGI (RXF-631 renal): > 100 µM
Cc1c(C2Cc3ccccc3N2C(=O)/C=C\C(=O)O)c2ccccc2n1C (stereo not given)		> 100 µM	58.3 µM	34.8 µM	31.5 µM	40 µM	> 100 µM		TGI (RXF-631 renal): > 100 µM
O=C1NC(=O)C2(CCC(O)C2)c2cc[n+]([O-])cc21 (stereo not given)	> 100 µM								
CC[C@@H](C)[C@H]([C@H](CC(=O)N1CCC[C@@H]1[C@@H](OC)[C@H](C)C(=O)N[C@H](Cc1ccccc1)c1nccs1)OC)N(C)C(=O)[C@H](NC(=O)[C@@H](C(C)C)N(C)C)C(C)C			0.000234 µM			0.00123 µM			TGI (P388 leukemia): 0.581 µM; TGI (P388/ADR leukemia): 0.000573 µM; TGI (RXF-631 renal): 0.00731 µM
C=C1CC2(OC1=O)c1ccccc1C=Cc1ccccc12	4.47 µM	3.76 µM	20.5 µM	7.14 µM	26.5 µM	21 µM	28.2 µM	27.4 µM	TGI (RXF-631 renal): 33.1 µM
CCOC(=O)CC1=NC(=Nc2cc(Cl)ccc2Cl)SC1		> 100 µM	> 100 µM	> 100 µM	> 100 µM	> 100 µM	> 100 µM	> 100 µM	
O=[N+]([O-])c1cc(Cl)cc2c1nc(NCCO)c1ccccc12	> 100 µM								
NC1=NC2(O)c3ccccc3C(=O)C2(O)N1 (stereo not given)		> 100 µM	> 100 µM	> 100 µM		> 100 µM	> 100 µM	> 100 µM	TGI (RXF-631 renal): > 100 µM
NS(=O)(=O)c1ccc(NC(=O)CC(=O)Nc2ccc(S(N)(=O)=O)cc2)cc1		> 100 µM	> 100 µM	> 100 µM		> 100 µM	> 100 µM	> 100 µM	
O=C(CCC(=O)N/N=C/c1ccccc1O)N/N=C/c1ccccc1O			> 100 µM	> 100 µM		> 100 µM	> 100 µM		
CC(=O)NCCCCCCNC(C)=O	> 10000 µM	> 10000 µM	> 10000 µM		8380 µM	> 10000 µM	7250 µM	> 10000 µM	TGI (P388 leukemia): > 10000 µM; TGI (P388/ADR leukemia): > 10000 µM; TGI (SN12K1 renal): > 10000 µM
CCc1ccc(/C(C)=N/NC(N)=S)cc1			> 100 µM		82.6 µM	> 100 µM		> 100 µM	
OCC(O)COc1c(Cl)ccc(Cl)c1Cl (stereo not given)		> 100 µM	> 100 µM	> 100 µM	> 100 µM	> 100 µM	> 100 µM	> 100 µM	
O=C(N/C(=C\c1ccc(Br)cc1)c1nc2ccccc2s1)c1ccccc1		> 100 µM	> 100 µM	> 100 µM	> 100 µM	> 100 µM	> 100 µM	> 100 µM	TGI (RXF-631 renal): > 100 µM
COc1cccc2c1cc([N+](=O)[O-])c1c(C(=O)O)cc3c(c12)OCO3	> 100 µM								
Cc1[nH]c(=O)nc(CC(O)(c2ccccc2)c2ccccc2)c1-c1ccccc1		> 100 µM	> 100 µM	> 100 µM		> 100 µM	> 100 µM	> 100 µM	TGI (RXF-631 renal): > 100 µM
O=C(N=Nc1c(O)[nH]c2c(Cl)cc(Cl)cc12)c1ccncc1	29.1 µM								
CC(=O)OCC(OC(C)=O)C(OC(C)=O)C(OC(C)=O)C(=O)CNn1c(-c2ccccc2)nc2ccc(Br)cc2c1=O (stereo not given)			> 100 µM	> 100 µM	> 100 µM	> 100 µM	> 100 µM		
COc1ccc2[nH]c(-c3cccc(N(C)C)c3)cc(=O)c2c1	0.156 µM								
O=C1C=CN(C2OC(CO)C(O)C2O)C(=O)C1 (stereo not given)	> 2500 µM	625 µM and > 2500 µM	625 µM and > 1160 µM		1940 µM		> 2500 µM	> 2500 µM	GI50 (DLD-1 colon): 21.5 µM; GI50 (DMS 273 small cell lung): > 625 µM; GI50 (HOP-18 NSCLC): > 625 µM; GI50 (KM20L2 colon): 19.9 µM; TGI (P388 leukemia): 52.5 µM; TGI (P388/ADR leukemia): > 992 µM; GI50 (SN12K1 renal): 24.7 µM and 14.4 µM; TGI (SN12K1 renal): 625 µM and > 810 µM; GI50 (XF 498 CNS): 409 µM
